Peptide text beside a SMILES is read from it. * marks the point of attachment. 5FAM = O=C1OC2(c3ccc(O)cc3Oc3cc(O)ccc32)c2ccc(C(=O)*)cc21
How the values were obtained:
[1] = target: T1, calprotectin tetramer (recombinant B-RCAL, His6-linker-S100A9-linker-S100A8) (Homo sapiens, UniProt P05109); assay: Fluorescence polarization (FP) binding to recombinant calprotectin B-RCAL tetramer in presence of CaCl2; settings: for effect of mutation to alanine on binding: alanine scan of linear peptide 3, found via FP and SPR
T1 construct: we used the recombinant protein without removing the His-tag or cleaving the 8-amino acid linker between the two proteins; co-authors' company
T1 sequence (P05109 with tags, fused parts or gaps): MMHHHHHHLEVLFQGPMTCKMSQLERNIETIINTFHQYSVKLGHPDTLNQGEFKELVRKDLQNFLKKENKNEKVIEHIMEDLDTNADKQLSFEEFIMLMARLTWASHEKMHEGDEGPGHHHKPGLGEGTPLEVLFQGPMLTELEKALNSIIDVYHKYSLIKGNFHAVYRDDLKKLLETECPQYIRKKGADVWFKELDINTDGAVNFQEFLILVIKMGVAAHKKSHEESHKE
Method: Calprotectin was serially diluted in 20 mM HEPES, 100 mM NaCl, 2 mM CaCl2, pH 7.5, and 1 mM DTT with 0.01% (v/v) Tween-20. Volumes of 16 μL of protein were added to 4 μL of fluorescent peptide (20 nM final concentration) in black 384-well microtiter plates. Fluorescence anisotropy was measured on a microwell plate reader (Infinite M200Pro, Tecan) with filters for excitation at 485 nm and emission at 535 nm. The dissociation constant (Kd) was calculated using a following Eq. (1) using Prism 5 software (GraphPad):1 A=Af+Ab−Af×LT+KD+PT−LT+KD+PT^2−4LTPT/2LT where A is anisotropy, Af and Ab are the anisotropy values for free and bound ligands, respectively. [L]T is the concentration of the total fluorescent ligand and [P]T the concentration of the protein.

[2] = target: T2, calprotectin tetramer (recombinant B-RCAL) (Homo sapiens, UniProt P05109); assay: SPR binding level at a single peptide concentration (500 nM); set-up: we used the recombinant protein without removing the His-tag or cleaving the 8-amino acid linker between the two proteins; co-authors' company; settings: peptides injected at 500 nM, single measurement
T2 sequence (P05109 with tags, fused parts or gaps): T1 sequence (P05109 with tags, fused parts or gaps)
Excerpt: Typical immobilization levels were 3000 resonance units (RUs).

[3] = FP, alanine scan of linear peptide 3, 20 nM peptide, 2 mM CaCl2, one measurement, NB = non-binding

Row | Structure (SMILES) | effect of mutation to alanine on binding [1] | Response at binding [2] | Kd [1, 3] | further results
1 | CSCC[C@H](NC(=O)[C@@H]1CCCN1C(=O)[C@H](C)NC(=O)[C@H](C)NC(=O)[C@@H](NC(=O)[C@H](CO)NC(=O)[C@H](CCC(=O)O)NC(=O)[C@@H]1CCCN1C(=O)[C@H](CO)NC(=O)[C@H](CCCNC(=N)N)NC(=O)c1ccc2c(c1)C(=O)OC21c2ccc(O)cc2Oc2cc(O)ccc21)C(C)C)C(=O)N[C@@H](Cc1ccccc1)C(=O)N[C@@H](CCC(N)=O)C(=O)N[C@@H](CO)C(=O)N[C@@H](Cc1c[nH]cn1)C(=O)N[C@@H](Cc1c[nH]c2ccccc12)C(=O)N[C@@H](Cc1ccc(O)cc1)C(=O)N[C@@H](CO)C(=O)NCC(N)=O [Peptide F8A] (5FAM-RSPESVAAPMFQSHWYSG-NH2) | complete loss in binding | -0.0133 RU |  | 
2 | CSCC[C@H](NC(=O)[C@@H]1CCCN1C(=O)[C@H](Cc1ccccc1)NC(=O)[C@H](C)NC(=O)[C@@H](NC(=O)[C@H](CO)NC(=O)[C@H](CCC(=O)O)NC(=O)[C@@H]1CCCN1C(=O)[C@H](CO)NC(=O)[C@H](CCCNC(=N)N)NC(=O)c1ccc2c(c1)C(=O)OC21c2ccc(O)cc2Oc2cc(O)ccc21)C(C)C)C(=O)N[C@@H](C)C(=O)N[C@@H](CCC(N)=O)C(=O)N[C@@H](CO)C(=O)N[C@@H](Cc1c[nH]cn1)C(=O)N[C@@H](Cc1c[nH]c2ccccc12)C(=O)N[C@@H](Cc1ccc(O)cc1)C(=O)N[C@@H](CO)C(=O)NCC(N)=O [Peptide F11A] (5FAM-RSPESVAFPMAQSHWYSG-NH2) | complete loss in binding | -1.75 RU |  | 
3 | CSCC[C@H](NC(=O)[C@@H]1CCCN1C(=O)[C@H](Cc1ccccc1)NC(=O)[C@H](C)NC(=O)[C@@H](NC(=O)[C@H](CO)NC(=O)[C@H](CCC(=O)O)NC(=O)[C@H](C)NC(=O)[C@H](CO)NC(=O)[C@H](CCCNC(=N)N)NC(=O)c1ccc2c(c1)C(=O)OC21c2ccc(O)cc2Oc2cc(O)ccc21)C(C)C)C(=O)N[C@@H](Cc1ccccc1)C(=O)N[C@@H](CCC(N)=O)C(=O)N[C@@H](CO)C(=O)N[C@@H](Cc1c[nH]cn1)C(=O)N[C@@H](Cc1c[nH]c2ccccc12)C(=O)N[C@@H](Cc1ccc(O)cc1)C(=O)N[C@@H](CO)C(=O)NCC(N)=O [Peptide P3A] (5FAM-RSAESVAFPMFQSHWYSG-NH2) |  |  | 28 nM | 
4 | CSCC[C@H](NC(=O)[C@@H]1CCCN1C(=O)[C@H](Cc1ccccc1)NC(=O)[C@H](C)NC(=O)[C@@H](NC(=O)[C@H](CO)NC(=O)[C@H](CCC(=O)O)NC(=O)[C@@H]1CCCN1C(=O)[C@H](CO)NC(=O)[C@H](CCCNC(=N)N)NC(=O)c1ccc2c(c1)C(=O)OC21c2ccc(O)cc2Oc2cc(O)ccc21)C(C)C)C(=O)N[C@@H](Cc1ccccc1)C(=O)N[C@@H](CCC(N)=O)C(=O)N[C@@H](CO)C(=O)N[C@@H](Cc1c[nH]cn1)C(=O)N[C@@H](C)C(=O)N[C@@H](Cc1ccc(O)cc1)C(=O)N[C@@H](CO)C(=O)NCC(N)=O [Peptide W15A] (5FAM-RSPESVAFPMFQSHAYSG-NH2) |  |  | 24 nM | 
5 | CC(C)C[C@H](NC(=O)[C@@H]1CCCN1C(=O)[C@H](Cc1ccccc1)NC(=O)[C@H](C)NC(=O)[C@@H](NC(=O)[C@H](CO)NC(=O)[C@H](CCC(=O)O)NC(=O)[C@@H]1CCCN1C(=O)[C@H](CO)NC(=O)[C@H](CCCNC(=N)N)NC(=O)c1ccc2c(c1)C(=O)OC21c2ccc(O)cc2Oc2cc(O)ccc21)C(C)C)C(=O)N[C@@H](Cc1ccccc1)C(=O)N[C@@H](CCC(N)=O)C(=O)N[C@@H](CO)C(=O)N[C@@H](Cc1c[nH]cn1)C(=O)N[C@@H](Cc1c[nH]c2ccccc12)C(=O)N[C@@H](Cc1ccc(O)cc1)C(=O)N[C@@H](CO)C(=O)NCC(N)=O [Met10Leu mutant] (5FAM-RSPESVAFPLFQSHWYSG-NH2) |  |  |  | Kd ([1]; FP, linear peptide 3 with Met10 mutated to leucine, 20 nM peptide, 2 mM CaCl2): 30.6 ± 4.6 nM
6 | CSCC[C@H](NC(=O)[C@@H]1CCCN1C(=O)[C@H](Cc1ccccc1)NC(=O)[C@H](C)NC(=O)[C@@H](NC(=O)[C@H](CO)NC(=O)[C@H](CCC(=O)O)NC(=O)[C@@H]1CCCN1C(=O)[C@H](CO)NC(=O)[C@H](CCCNC(=N)N)NC(=O)c1ccc2c(c1)C(=O)OC21c2ccc(O)cc2Oc2cc(O)ccc21)C(C)C)C(=O)N[C@@H](Cc1ccccc1)C(=O)N[C@@H](CCC(N)=O)C(=O)N[C@@H](CO)C(=O)N[C@@H](C)C(=O)N[C@@H](Cc1c[nH]c2ccccc12)C(=O)N[C@@H](Cc1ccc(O)cc1)C(=O)N[C@@H](CO)C(=O)NCC(N)=O [Peptide H14A] (5FAM-RSPESVAFPMFQSAWYSG-NH2) | complete loss in binding | 10 RU |  | 
7 | CC(C)[C@H](NC(=O)[C@H](CO)NC(=O)[C@H](CCC(=O)O)NC(=O)[C@@H]1CCCN1C(=O)[C@H](CO)NC(=O)[C@H](CCCNC(=N)N)NC(=O)c1ccc2c(c1)C(=O)OC21c2ccc(O)cc2Oc2cc(O)ccc21)C(=O)N[C@@H](C)C(=O)N[C@@H](Cc1ccccc1)C(=O)N1CCC[C@H]1C(=O)N[C@@H](C)C(=O)N[C@@H](Cc1ccccc1)C(=O)N[C@@H](CCC(N)=O)C(=O)N[C@@H](CO)C(=O)N[C@@H](Cc1c[nH]cn1)C(=O)N[C@@H](Cc1c[nH]c2ccccc12)C(=O)N[C@@H](Cc1ccc(O)cc1)C(=O)N[C@@H](CO)C(=O)NCC(N)=O [Peptide M10A] (5FAM-RSPESVAFPAFQSHWYSG-NH2) | complete loss in binding | 7 RU |  | 
8 | CSCC[C@H](NC(=O)[C@@H]1CCCN1C(=O)[C@H](Cc1ccccc1)NC(=O)[C@H](C)NC(=O)[C@@H](NC(=O)[C@H](CO)NC(=O)[C@H](CCC(=O)O)NC(=O)[C@@H]1CCCN1C(=O)[C@H](CO)NC(=O)[C@H](CCCNC(=N)N)NC(=O)c1ccc2c(c1)C(=O)OC21c2ccc(O)cc2Oc2cc(O)ccc21)C(C)C)C(=O)N[C@@H](Cc1ccccc1)C(=O)N[C@@H](CCC(N)=O)C(=O)N[C@@H](CO)C(=O)N[C@@H](Cc1c[nH]cn1)C(=O)N[C@@H](Cc1c[nH]c2ccccc12)C(=O)N[C@@H](C)C(=O)N[C@@H](CO)C(=O)NCC(N)=O [Peptide Y16A] (5FAM-RSPESVAFPMFQSHWASG-NH2) | complete loss in binding | 6 RU |  | 
9 | CSCC[C@H](NC(=O)[C@H](C)NC(=O)[C@H](Cc1ccccc1)NC(=O)[C@H](C)NC(=O)[C@@H](NC(=O)[C@H](CO)NC(=O)[C@H](CCC(=O)O)NC(=O)[C@@H]1CCCN1C(=O)[C@H](CO)NC(=O)[C@H](CCCNC(=N)N)NC(=O)c1ccc2c(c1)C(=O)OC21c2ccc(O)cc2Oc2cc(O)ccc21)C(C)C)C(=O)N[C@@H](Cc1ccccc1)C(=O)N[C@@H](CCC(N)=O)C(=O)N[C@@H](CO)C(=O)N[C@@H](Cc1c[nH]cn1)C(=O)N[C@@H](Cc1c[nH]c2ccccc12)C(=O)N[C@@H](Cc1ccc(O)cc1)C(=O)N[C@@H](CO)C(=O)NCC(N)=O [Peptide P9A] (5FAM-RSPESVAFAMFQSHWYSG-NH2) |  |  | 30 nM | 
10 | CSCC[C@@H]1NC(=O)[C@@H]2CCCN2C(=O)[C@H](Cc2ccccc2)NC(=O)[C@H](C)NC(=O)[C@H](C(C)C)NC(=O)[C@@H]2CSCC(=O)CSC[C@@H](C(=O)NCC(N)=O)NC(=O)[C@H](Cc3ccc(O)cc3)NC(=O)[C@H](Cc3c[nH]c4ccccc34)NC(=O)[C@H](Cc3c[nH]cn3)NC(=O)[C@H](CSCC(=O)CSC[C@H](NC(=O)[C@H](CCCNC(=N)N)NC(=O)c3ccc4c(c3)C(=O)OC43c4ccc(O)cc4Oc4cc(O)ccc43)C(=O)N3CCC[C@H]3C(=O)N[C@@H](CCC(=O)O)C(=O)N2)NC(=O)[C@H](CCC(N)=O)NC(=O)[C@H](Cc2ccccc2)NC1=O (single isomer, unassigned) [Peptide 3 Isomer 2] |  |  |  | FP increase upon binding to calprotectin ([1]; FP, 2 mM CaCl2): 10–15%
